From US5972955A, “Water soluble C-ring analogues of 20(S)-camptothecin” (Dr. Reddy's Research Foundation, priority 1996, dated 1999)

These compounds were tested on SF-268 (assay: NCI in vitro growth inhibition, CNS SF-268). Conditions: Homo sapiens, SF-268, 48 h, read-out: 50% Growth Inhibition (GI 50).
Format: cell-based
Protocol: (§1) Inoculates were allowed a preincubation period of 24 h at 37° C. for stabilization.
`CC[C@@]1(O)C(=O)OCc2c1cc1n(c2=O)C(NC)c2cc3ccccc3nc2-1` (some centres unmarked) [Example 12, 5-Methylaminocamptothecin] showed a GI50 of 0.85 µM.

What follows are compounds tested on H 522 (assay: NCI in vitro growth inhibition, NSLC H 522). Conditions: Homo sapiens, NCI-H522, read-out: 50% Growth Inhibition (GI 50); H 522, NSLC; 48 h.
Format: cell-based
Protocol: as §1
For `CC[C@@]1(O)C(=O)OCc2c1cc1n(c2=O)C(NC)c2cc3ccccc3nc2-1` (some centres unmarked) [Example 12, 5-Methylaminocamptothecin], the GI50 was 2.88 µM.

Each compound was assayed on HOP 62 (assay: NCI in vitro growth inhibition, NSLC HOP 62). Conditions: Homo sapiens, read-out: 50% Growth Inhibition (GI 50); HOP 62, NSLC; 48 h.
Format: cell-based
Protocol: as §1
`CC[C@@]1(O)C(=O)OCc2c1cc1n(c2=O)C(NC)c2cc3ccccc3nc2-1` (some centres unmarked) [Example 12, 5-Methylaminocamptothecin] showed a GI50 of 1.73 µM.

The compounds below were run on MCF7/ADR (assay: NCI in vitro growth inhibition, breast MCF7/ADR). Conditions: Homo sapiens, NCI/ADR-RES, read-out: 50% Growth Inhibition (GI 50), 48 h.
Format: cell-based
Protocol: as §1
In the case of `CC[C@@]1(O)C(=O)OCc2c1cc1n(c2=O)C(NC)c2cc3ccccc3nc2-1` (some centres unmarked) [Example 12, 5-Methylaminocamptothecin], the GI50 is reported as 1.94 µM.

What follows are compounds tested on ACHN (assay: NCI in vitro growth inhibition, renal ACHN). Conditions: Homo sapiens, read-out: 50% Growth Inhibition (GI 50), 48 h.
Format: cell-based
Protocol: as §1
`CC[C@@]1(O)C(=O)OCc2c1cc1n(c2=O)C(NC)c2cc3ccccc3nc2-1` (some centres unmarked) [Example 12, 5-Methylaminocamptothecin] was tested, and the GI50 was 0.97 µM.

These compounds were tested on T 47D (assay: NCI in vitro growth inhibition, breast T 47D). Conditions: Homo sapiens, T47D, read-out: 50% Growth Inhibition (GI 50), 48 h.
Format: cell-based
Protocol: as §1
With `CC[C@@]1(O)C(=O)OCc2c1cc1n(c2=O)C(NC)c2cc3ccccc3nc2-1` (some centres unmarked) [Example 12, 5-Methylaminocamptothecin] the GI50 was 4.67 µM.

Each compound was assayed on MOLT-4 (assay: NCI in vitro growth inhibition, leukemia MOLT-4). Conditions: Homo sapiens, read-out: 50% Growth Inhibition (GI 50); MOLT-4, leukemia; 48 h.
Format: cell-based
Protocol: as §1
Compound `CC[C@@]1(O)C(=O)OCc2c1cc1n(c2=O)C(NC)c2cc3ccccc3nc2-1` (some centres unmarked) [Example 12, 5-Methylaminocamptothecin] has a GI50 of 0.15 µM.

Each compound was assayed on M-14 (assay: NCI in vitro growth inhibition, melanoma M-14). Conditions: Homo sapiens, M14, read-out: 50% Growth Inhibition (GI 50); M-14, melanoma; 48 h.
Format: cell-based
Protocol: as §1
Compound `CC[C@@]1(O)C(=O)OCc2c1cc1n(c2=O)C(NC)c2cc3ccccc3nc2-1` (some centres unmarked) [Example 12, 5-Methylaminocamptothecin] has a GI50 of 2.18 µM.

Each compound was assayed on NCI's 60 human tumor cell line assay (assay: NCI 60 human tumor cell line assay, mean growth inhibition (Table 1)). Conditions: read-out: IC50 = the mean value of the minimum drug concentration of the agent required to produce 50% cell growth inhibition (GI50); mean over NCI's 60 human tumor cell lines; 48 h; Sulforhodamine B.
Format: cell-based
Protocol: as §1
^a IC50 = the mean value of the minimum drug concentration (μm) of
NCI's 60 human tumor cell line assay.
For `CC[C@@]1(O)C(=O)OCc2c1cc1n(c2=O)C(NC)c2cc3ccccc3nc2-1` (some centres unmarked) [Example 12, 5-Methylaminocamptothecin], the IC50 was 4.67 µM.

These compounds were tested on 786-O (assay: NCI in vitro growth inhibition, renal 786-O). Conditions: Homo sapiens, 786-0, read-out: 50% Growth Inhibition (GI 50), 48 h.
Format: cell-based
Protocol: as §1
`CC[C@@]1(O)C(=O)OCc2c1cc1n(c2=O)C(NC)c2cc3ccccc3nc2-1` (some centres unmarked) [Example 12, 5-Methylaminocamptothecin] gave a GI50 of 4.07 µM.

What follows are compounds tested on SF-539 (assay: NCI in vitro growth inhibition, CNS SF-539). Conditions: Homo sapiens, read-out: 50% Growth Inhibition (GI 50); SF-539, CNS; 48 h.
Format: cell-based
Protocol: as §1
`CC[C@@]1(O)C(=O)OCc2c1cc1n(c2=O)C(NC)c2cc3ccccc3nc2-1` (some centres unmarked) [Example 12, 5-Methylaminocamptothecin] gave a GI50 of 1.81 µM.

The compounds below were run on SF 295 (assay: NCI in vitro growth inhibition, CNS SF 295). Conditions: Homo sapiens, read-out: 50% Growth Inhibition (GI 50); SF 295, CNS; 48 h.
Format: cell-based
Protocol: as §1
In the case of `CC[C@@]1(O)C(=O)OCc2c1cc1n(c2=O)C(NC)c2cc3ccccc3nc2-1` (some centres unmarked) [Example 12, 5-Methylaminocamptothecin], the GI50 is reported as 1.12 µM.

What follows are compounds tested on MCF-7 (assay: NCI in vitro growth inhibition, breast MCF-7). Conditions: Homo sapiens, MCF7, read-out: 50% Growth Inhibition (GI 50); MCF-7, breast; 48 h.
Format: cell-based
Protocol: as §1
For `CC[C@@]1(O)C(=O)OCc2c1cc1n(c2=O)C(NC)c2cc3ccccc3nc2-1` (some centres unmarked) [Example 12, 5-Methylaminocamptothecin], the GI50 was 1.25 µM.

The compounds below were run on CCRF-CEM (assay: NCI in vitro growth inhibition, leukemia CCRF-CEM). Conditions: Homo sapiens, read-out: 50% Growth Inhibition (GI 50), 48 h.
Format: cell-based
Protocol: as §1
Work on `CC[C@@]1(O)C(=O)OCc2c1cc1n(c2=O)C(NC)c2cc3ccccc3nc2-1` (some centres unmarked) [Example 12, 5-Methylaminocamptothecin] yielded a GI50 of 0.23 µM.

These compounds were tested on LOX IMVI (assay: NCI in vitro growth inhibition, melanoma LOX IMVI). Conditions: Homo sapiens, read-out: 50% Growth Inhibition (GI 50), 48 h.
Format: cell-based
Protocol: as §1
Compound `CC[C@@]1(O)C(=O)OCc2c1cc1n(c2=O)C(NC)c2cc3ccccc3nc2-1` (some centres unmarked) [Example 12, 5-Methylaminocamptothecin] has a GI50 of 2.34 µM.

The compounds below were run on HL 60 (assay: NCI in vitro growth inhibition, leukemia HL 60). Conditions: Homo sapiens, read-out: 50% Growth Inhibition (GI 50); HL 60, leukemia; 48 h.
Format: cell-based
Protocol: as §1
Compound `CC[C@@]1(O)C(=O)OCc2c1cc1n(c2=O)C(NC)c2cc3ccccc3nc2-1` (some centres unmarked) [Example 12, 5-Methylaminocamptothecin] has a GI50 of 0.22 µM.

The compounds below were run on H 23 (assay: NCI in vitro growth inhibition, NSLC H 23). Conditions: Homo sapiens, NCI-H23, read-out: 50% Growth Inhibition (GI 50); H 23, NSLC; 48 h.
Format: cell-based
Protocol: as §1
`CC[C@@]1(O)C(=O)OCc2c1cc1n(c2=O)C(NC)c2cc3ccccc3nc2-1` (some centres unmarked) [Example 12, 5-Methylaminocamptothecin] showed a GI50 of 2.57 µM.

The compounds below were run on SK MEL-5 (assay: NCI in vitro growth inhibition, melanoma SK MEL-5). Conditions: Homo sapiens, read-out: 50% Growth Inhibition (GI 50); SK MEL-5, melanoma; 48 h.
Format: cell-based
Protocol: as §1
`CC[C@@]1(O)C(=O)OCc2c1cc1n(c2=O)C(NC)c2cc3ccccc3nc2-1` (some centres unmarked) [Example 12, 5-Methylaminocamptothecin] gave a GI50 of 2.51 µM.

These compounds were tested on SR (assay: NCI in vitro growth inhibition, leukemia SR). Conditions: Homo sapiens, read-out: 50% Growth Inhibition (GI 50), 48 h.
Format: cell-based
Protocol: as §1
Compound `CC[C@@]1(O)C(=O)OCc2c1cc1n(c2=O)C(NC)c2cc3ccccc3nc2-1` (some centres unmarked) [Example 12, 5-Methylaminocamptothecin] has a GI50 of 0.03 µM.

These compounds were tested on CAKI-1 (assay: NCI in vitro growth inhibition, renal CAKI-1). Conditions: Homo sapiens, read-out: 50% Growth Inhibition (GI 50); CAKI-1, renal; 48 h.
Format: cell-based
Protocol: as §1
With `CC[C@@]1(O)C(=O)OCc2c1cc1n(c2=O)C(NC)c2cc3ccccc3nc2-1` (some centres unmarked) [Example 12, 5-Methylaminocamptothecin] the GI50 was 2.29 µM.
